Assay results from the NIST ThermoML archive (doi:10.1016/j.jct.2013.07.026).
Several values for one entry are separate records, joined by “and”; a condition that tells them apart may be missing. Equal entries are not always repeated. ± gives the expanded uncertainty stated by the source.

Columns and labels:
[1] = Crystal, Calculated from knudsen effusion weight loss
[2] = molar enthalpy of vaporization or sublimation; conditions: 298.15 K; Crystal; Static calorimetry

SMILES | vapor or sublimation pressure ([1]; 301.2 K) | vapor or sublimation pressure ([1]; 303.19 K) | vapor or sublimation pressure ([1]; 305.1 K) | vapor or sublimation pressure ([1]; 307.19 K) | vapor or sublimation pressure ([1]; 309.18 K) | vapor or sublimation pressure ([1]; 311.1 K) | vapor or sublimation pressure ([1]; 313.19 K) | vapor or sublimation pressure ([1]; 315.19 K) | vapor or sublimation pressure ([1]; 317.1 K) | vapor or sublimation pressure ([1]; 319.18 K) | vapor or sublimation pressure ([1]; 321.15 K) | vapor or sublimation pressure ([1]; 323.09 K) | molar enthalpy [2]
O=C(CCl)c1ccc(Cl)cc1 [2,4'-dichloroacetophenone] | 8.5e-05 ± 4e-06 kPa and 7.6e-05 ± 4e-06 kPa and 7.9e-05 ± 4e-06 kPa | 9.9e-05 ± 5e-06 kPa and 0.000105 ± 5e-06 kPa and 0.000103 ± 5e-06 kPa | 0.000133 ± 7e-06 kPa and 0.000131 ± 7e-06 kPa and 0.000134 ± 7e-06 kPa | 0.000165 ± 8e-06 kPa and 0.000178 ± 9e-06 kPa | 0.000218 ± 1.1e-05 kPa and 0.000214 ± 1.1e-05 kPa and 0.000221 ± 1.1e-05 kPa | 0.00027 ± 1.4e-05 kPa and 0.000271 ± 1.4e-05 kPa and 0.000278 ± 1.4e-05 kPa | 0.000344 ± 1.7e-05 kPa and 0.000341 ± 1.7e-05 kPa and 0.000359 ± 1.8e-05 kPa | 0.000447 ± 2.2e-05 kPa and 0.000437 ± 2.2e-05 kPa and 0.000448 ± 2.2e-05 kPa | 0.000561 ± 2.8e-05 kPa and 0.000553 ± 2.8e-05 kPa and 0.000562 ± 2.8e-05 kPa | 0.000699 ± 3.5e-05 kPa and 0.000686 ± 3.4e-05 kPa and 0.000757 ± 3.8e-05 kPa | 0.000903 ± 4.5e-05 kPa and 0.000911 ± 4.6e-05 kPa and 0.000875 ± 4.4e-05 kPa | 0.001131 ± 0.00012 kPa and 0.001115 ± 0.00011 kPa and 0.001107 ± 0.00011 kPa | 
O=C(CCl)c1ccccc1 [2-chloroacetophenone] |  |  |  |  |  |  |  |  |  |  |  |  | 21 ± 0.406 kcal/mol
